Assay results taken from patent US6355649B1, “Method of treating seborrhea with 5-α reductase inhibitors” (priority 1993, dated 2002).

Key:
[1] = Solubility of finasteride polymorphic crystal forms; format: physicochemical; conditions: 25° C.
Protocol: Finasteride Form I can be prepared by dissolving finasteride in glacial acetic acid (ca. 100 mg/ml) and adding water with stirring until the weight % of water equals or exceeds 84%. The resulting solid phase is collected by filtration and dried under vacuum and at about 50° C. […] The x-ray powder diffraction pattern is characterized by d-spacings of 6.44, 5.69, 5.36, 4.89, 4.55, 4.31, 3.85, 3.59 and 3.14. […] The solubilities in water and cyclohexane at 25° C. are 0.05+0.02 and 0.27+0.05 mg/gm respectively. In addition, Form I of finasteride can be prepared by recrystallization from dry (H2O<1 mg/ml) ethyl acetate and isopropyl acetate. The isolated solids are dried under vacuum at about 50° C. and have the same physical characterization data as given above.
Form II of finasteride can be prepared by dissolving finasteride in glacial acetic acid (ca. 100 mg/ml) and adding water with stirring until the weight % of water equals about 75% but not in excess of 80%. The resulting solid phase is collected by filtration and dried under vacuum and at about 100° C. […] The x-ray powder diffraction pattern is characterized by d-spacings of 14.09, 10.36, 7.92, 7.18, 6.40, 5.93, 5.66, 5.31, 4.68, 3.90, 3.60 and 3.25. […] The solubilities in water and cyclohexane at 25° C. are 0.16+0.02 and 0.42+0.05 mg/gm respectively. In addition, Form II of finasteride can be prepared by recrystallization from ethyl acetate containing between 2 to 30 mg/ml of water and isopropyl acetate containing between 2 to 15 mg/ml of water. The isolated solids are dried under vacuum at about 80° C. and have the same physical characterization data as given above. Form II can also be prepared by heating Form I up to about 150° C., holding for about one hour and cooling back to room temperature. The Form II prepared in this manner has the same physical characterization data as given above.

[2] = test system: hair growth (androgenic alopecia); experiment: Macrophotography and global photography procedure for detection of hair growth; format: in vivo, patients; conditions: dosages below 5 mg/day per patient, for example 1 mg/day or 0.2 mg/day; "it can be shown"
Protocol: Location: ID card Haircount target area
In these clinical photographs, the only variable allowed is the haircount. Film emulsion, lighting, framing, exposure, and reproduction ratios are held constant.
1. The haircount area on the patient is prepared as follows: A small (˜1 mm) dot tattoo is placed at the beginning of the study at the leading edge of the bald area directly anterior to the center of the vertex bald spot, using a commercial tattooing machine or manually (needle and ink). An area approximately one square inch in size, centered at the tattoo at the leading edge of the balding area, is clipped short (˜2 mm). Cut hairs are removed from the area to be photographed, using tape. Compressed air and/or ethanol wipes may also be used to facilitate removal of cut hairs.
2. […]
A trained technician places a transparency over the photographic print and, using a felt tip pen, places a black dot over each visible hair. The dot map transparency is then counted using image analysis with computer assistance.
Photographs are coded with a random number corresponding to study site, visit number and patient allocation number to insure blinding to time. At Month 6, baseline and Month 6 photographs are counted and data analyzed for interim analysis. At Month 12, baseline, Month 6 and Month 12 photographs are counted and data analyzed for the primary endpoint. […]

[3] = test system: DHT content in scalp tissue; experiment: DHT content in scalp tissue after oral finasteride in men with male pattern baldness; format: in vivo; conditions: orally for 6 weeks, 0.2 mg/day, 1.0 mg/day and 5.0 mgs/day
Protocol: In another test, finasteride was orally administered for 6 weeks to men with male pattern baldness at doses of 0.2 mg/day, 1.0 mg/day and 5.0 mgs/day.

CC(C)(C)NC(=O)[C@H]1CCC2C3CCC4NC(=O)C=C[C@]4(C)C3CC[C@@]21C (stereo partly drawn) [Form II, 17β-(N-tert-butylcarbamoyl)-4-aza-5α-androst-1-ene-3-one]
solubility in cyclohexane [1]: 0.42 ± 0.05 mg/gm
solubility in water [1]: 0.16 ± 0.02 mg/gm

CC(C)(C)NC(=O)[C@H]1CC[C@H]2[C@@H]3CC[C@H]4NC(=O)C=C[C@]4(C)[C@H]3CC[C@]12C [finasteride, 17β-(N-tert-butylcarbamoyl)-4-aza-5α-androst-1-ene-3-one]
hair growth / treatment of androgenic alopecia [2]: promote hair growth
DHT content in scalp tissue [3]: significant reduction

CC(C)(C)NC(=O)[C@H]1CCC2C3CCC4NC(=O)C=C[C@]4(C)C3CC[C@@]21C (stereo partly drawn) [Form I, 17β-(N-tert-butylcarbamoyl)-4-aza-5α-androst-1-ene-3-one]
solubility in cyclohexane [1]: 0.27 ± 0.05 mg/gm
solubility in water [1]: 0.05 ± 0.02 mg/gm
